In general, IC50 refers to the midpoint of a concentration-inhibition curve. A high value points to weaker potency.

The results in this text go back to US20160136110A1, “Method for Treating a Neurodegenerative Event” (MAKScientific, LLC, priority 2012, published 2016).

The target in assay [1] is T1, rat and/or human FAAH enzyme (UniProt P97612).
T1 sequence (P97612 1-579): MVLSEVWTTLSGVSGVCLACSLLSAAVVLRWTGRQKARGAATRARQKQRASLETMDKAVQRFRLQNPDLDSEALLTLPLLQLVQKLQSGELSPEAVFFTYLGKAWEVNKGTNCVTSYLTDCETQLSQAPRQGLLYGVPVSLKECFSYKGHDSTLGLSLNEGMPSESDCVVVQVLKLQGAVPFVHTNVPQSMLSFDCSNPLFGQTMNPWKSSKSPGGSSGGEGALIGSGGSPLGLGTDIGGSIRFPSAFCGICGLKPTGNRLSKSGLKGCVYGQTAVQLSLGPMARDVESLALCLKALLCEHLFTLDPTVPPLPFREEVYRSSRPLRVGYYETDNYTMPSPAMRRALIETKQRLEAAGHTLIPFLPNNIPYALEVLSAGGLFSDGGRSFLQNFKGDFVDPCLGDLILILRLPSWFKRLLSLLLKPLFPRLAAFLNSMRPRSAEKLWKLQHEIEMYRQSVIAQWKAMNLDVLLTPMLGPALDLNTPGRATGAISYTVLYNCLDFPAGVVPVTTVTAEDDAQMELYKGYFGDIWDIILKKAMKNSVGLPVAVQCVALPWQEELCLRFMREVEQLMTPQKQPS
Briefly: FAAH inhibition assay. Format: biochemical. As to conditions: rat or human FAAH inhibition assay as in Rahn et al. (2011). The text has this: Biochem and Behavior 98: 493. […] Particular FAAH inhibitor compounds for use with the invention include those disclosed in the following references: Deng, H (2010) Expert Opin. Drug Discovery 5(10): 961-993 and Blankman (2013) Pharmacol Rev 65:849-871, Seierstad (2008) J. Med. Chem., 51 (23), pp 7327-7343, Ahn (2009) Expert Opin. Drug Discov. 4(7):763-784 and references cited therein.

The subject of the next assay is GDNF. Nature of the assay: GDNF ELISA of hippocampus after kainic acid injection. Format: in vivo, rat. To be noted: young rats (PND 22), kainic acid i.p. followed by 8 mg/kg i.p., 24 h; vs vehicle, p<0.02; FIG. 1A. How it is done:
(§1) Young rats (PND 22) were injected i.p. with kainic acid (KA), followed immediately by vehicle (veh) or the FAAH inhibitor, Compound 1 (8 mg/kg, i.p.). After 24 h, hippocampus was rapidly dissected, and the homogenates were centrifuged to obtain supernatant for ELISA measures of GDNF) and BDNF. Standard curves were used to convert measures to pg cytokine per mg supernatant protein (±SEM). Unpaired t-tests: GDNF, *p<0.02; BDNF, ***p<0.001.

The next assay has as its system BDNF. Briefly: BDNF ELISA of hippocampus after kainic acid injection. Format: in vivo, rat. To be noted: young rats (PND 22), kainic acid i.p. followed by 8 mg/kg i.p., 24 h; vs vehicle, p<0.001; FIG. 1B. How it is done:
as §1
In general terms: ELISA stands for enzyme-linked immunosorbent assay.

`O=C(CCCOc1ccc(OCc2ccccc2)cc1)C(F)(F)F` [Compound 1, 5-(4-(benzyloxy)phenoxy)-1,1,1-trifluoropentan-2-one] returned an IC50 in assay [1] of 42 nM. The “GDNF levels in hippocampus (ELISA)” value in the assay on GDNF is listed as “enhances GDNF levels”. The “BDNF levels in hippocampus (ELISA)” value in the assay on BDNF is reported as “protects against excitotoxin-induced reduction in BDNF”.
